Consider 40 compounds from US9828378B2, “Kinase inhibitors and methods of use” (Intellikine LLC, priority 2008, dated 2017).

Like-named read-outs stand apart in the source and are kept apart here. A value given as a limit tells only on which side of the number the result lay.

Common to all, as to type: biochemical
Experiment [1] deals with mTORC (Homo sapiens (Human), UniProt P42345). The experiment can be described thus: mTOR kinase inhibition assay. The note with it: Table 1; read-out: mTORC IC50.
Procedure: The compounds described herein can be tested against recombinant mTOR (Invitrogen) in an assay containing 50 mM HEPES, pH 7.5, 1 mM EGTA, 10 mM MgCl2, 2.5 mM, 0.01% Tween, 10 μM ATP (2.5 μCi of p-32P-ATP), and 3 μg/mL BSA. Rat recombinant PHAS-1/4EBP1 (Calbiochem; 2 mg/mL) is used as a substrate. Reactions are terminated by spotting onto nitrocellulose, which is washed with 1M NaCl/1% phosphoric acid (approximately 6 times, 5-10 minutes each). Sheets are dried and the transferred radioactivity quantitated by phosphorimaging.
For instance, one can use Invitrogen's LanthaScreen™ Kinase assay to test the inhibitors of mTOR disclosed herein. This assay is a time resolved FRET platform that measures the phosphorylation of GFP labeled 4EBP1 by mTOR kinase. The kinase reaction is performed in a white 384 well microtitre plate. The total reaction volume is 20 ul per well and the reaction buffer composition is 50 mM HEPES pH7.5, 0.01% Polysorbate 20, 1 mM EGTA, 10 mM MnCl2, and 2 mM DTT. In the first step, each well receives 2 ul of test compound in 20% dimethylsulphoxide resulting in a 2% DMSO final concentration. Next, 8 ul of mTOR diluted in reaction buffer is added per well for a 60 ng/ml final concentration. To start the reaction, 10 ul of an ATP/GFP-4EBP1 mixture (diluted in reaction buffer) is added per well for a final concentration of 10 uM ATP and 0.5 uM GFP-4EBP1. The plate is sealed and incubated for 1 hour at room temperature. […] The plate is sealed, incubated for 1 hour at room temperature, and then read on a plate reader set up for LanthaScreen™ TR-FRET. Data is analyzed and IC50s are generated using GraphPad Prism 5.
For experiment [2], the target named is PI3K α (Homo sapiens (Human), UniProt P42336). The experiment can be described thus: PI3K α inhibition assay. The note with it: Table 1; read-out: PI3K α IC50.
Sequence of PI3K α (P42336 whole entry): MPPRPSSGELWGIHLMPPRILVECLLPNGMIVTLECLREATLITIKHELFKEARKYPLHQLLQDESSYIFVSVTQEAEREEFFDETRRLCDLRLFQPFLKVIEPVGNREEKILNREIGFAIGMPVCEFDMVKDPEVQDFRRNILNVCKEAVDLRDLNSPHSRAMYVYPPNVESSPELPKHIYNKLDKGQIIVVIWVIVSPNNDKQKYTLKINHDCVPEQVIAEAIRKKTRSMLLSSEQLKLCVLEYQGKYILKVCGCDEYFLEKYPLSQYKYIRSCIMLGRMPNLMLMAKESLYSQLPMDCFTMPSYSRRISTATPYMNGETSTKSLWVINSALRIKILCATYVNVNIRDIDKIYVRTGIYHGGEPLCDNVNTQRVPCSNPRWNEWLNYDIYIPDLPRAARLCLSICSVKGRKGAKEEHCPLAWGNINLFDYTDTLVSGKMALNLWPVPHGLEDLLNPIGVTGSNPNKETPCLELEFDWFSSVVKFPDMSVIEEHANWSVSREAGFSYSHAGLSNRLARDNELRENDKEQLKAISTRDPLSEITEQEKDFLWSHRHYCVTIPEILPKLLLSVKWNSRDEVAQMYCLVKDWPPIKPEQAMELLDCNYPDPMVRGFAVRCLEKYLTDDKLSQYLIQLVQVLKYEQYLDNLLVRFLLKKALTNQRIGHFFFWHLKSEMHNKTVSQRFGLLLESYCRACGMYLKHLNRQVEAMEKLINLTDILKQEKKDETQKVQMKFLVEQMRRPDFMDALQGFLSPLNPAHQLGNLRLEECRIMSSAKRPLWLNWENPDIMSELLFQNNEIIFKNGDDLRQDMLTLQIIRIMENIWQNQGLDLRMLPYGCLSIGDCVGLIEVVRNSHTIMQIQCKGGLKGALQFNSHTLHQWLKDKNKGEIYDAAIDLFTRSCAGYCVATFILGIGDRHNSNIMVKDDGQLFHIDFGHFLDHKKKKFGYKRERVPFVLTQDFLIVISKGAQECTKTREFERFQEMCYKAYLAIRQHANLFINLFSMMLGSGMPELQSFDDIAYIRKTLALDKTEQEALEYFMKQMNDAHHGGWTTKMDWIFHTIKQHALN
Sequence of PI3K α (P27986 whole entry partner): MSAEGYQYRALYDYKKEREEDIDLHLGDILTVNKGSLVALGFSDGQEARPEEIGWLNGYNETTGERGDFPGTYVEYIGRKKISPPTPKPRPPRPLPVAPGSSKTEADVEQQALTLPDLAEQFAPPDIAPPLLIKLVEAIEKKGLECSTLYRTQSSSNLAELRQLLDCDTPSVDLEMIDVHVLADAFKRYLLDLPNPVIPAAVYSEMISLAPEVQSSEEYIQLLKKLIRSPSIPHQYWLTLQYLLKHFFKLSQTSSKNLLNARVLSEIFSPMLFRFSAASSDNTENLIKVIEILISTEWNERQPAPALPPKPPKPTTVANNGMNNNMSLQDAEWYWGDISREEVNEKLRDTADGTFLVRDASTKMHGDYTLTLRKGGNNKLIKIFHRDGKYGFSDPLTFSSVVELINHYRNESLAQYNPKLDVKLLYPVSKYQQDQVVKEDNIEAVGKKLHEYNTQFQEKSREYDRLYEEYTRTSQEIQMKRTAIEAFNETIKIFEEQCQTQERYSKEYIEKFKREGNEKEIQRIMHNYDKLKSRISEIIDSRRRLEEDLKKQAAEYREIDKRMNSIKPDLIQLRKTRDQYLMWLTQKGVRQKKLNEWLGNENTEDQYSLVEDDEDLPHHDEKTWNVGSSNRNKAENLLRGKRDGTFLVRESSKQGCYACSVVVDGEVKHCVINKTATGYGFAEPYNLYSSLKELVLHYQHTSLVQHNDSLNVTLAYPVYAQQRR
Procedure: (§1) IC50 values are measured using either a standard TLC assay for lipid kinase activity (described below) or a high-throughput membrane capture assay. Kinase reactions are performed by preparing a reaction mixture containing kinase, inhibitor (2% DMSO final concentration), buffer (25 mM HEPES, pH 7.4, 10 mM MgCl2), and freshly sonicated phosphatidylinositol (100 μg/ml). Reactions are initiated by the addition of ATP containing 10 μCi of γ-32P-ATP to a final concentration 10 or 100 μM and allowed to proceed for 5 minutes at room temperature. For TLC analysis, reactions are then terminated by the addition of 105 μl 1N HCl followed by 160 μl CHCl3:MeOH (1:1). The biphasic mixture is vortexed, briefly centrifuged, and the organic phase is transferred to a new tube using a gel loading pipette tip precoated with CHCl3. […] The TLC plates are then dried, exposed to a phosphorimager screen (Storm, Amersham), and quantitated.
(§2) Briefly, the assay is a time resolved FRET assay that indirectly measures PIP3 product formed by the activity of a PI3-K. The kinase reaction is performed in a microtitre plate (e.g., a 384 well microtitre plate). The total reaction volume is approximately 20 ul per well. In the first step, each well receives 2 ul of test compound in 20% dimethylsulphoxide resulting in a 2% DMSO final concentration. Next, approximately 14.5 ul of a kinase/PIP2 mixture (diluted in 1× reaction buffer) is added per well for a final concentration of 0.25-0.3 ug/ml kinase and 10 uM PIP2. The plate is sealed and incubated for 15 minutes at room temperature. To start the reaction, 3.5 ul of ATP (diluted in 1× reaction buffer) is added per well for a final concentration of 10 uM ATP. The plate is sealed and incubated for 1 hour at room temperature. The reaction is stopped by adding 5 ul of Stop Solution per well and then 5 ul of Detection Mix is added per well. The plate is sealed, incubated for 1 hour at room temperature, and then read on an appropriate plate reader. Data is analyzed and IC50s are generated using GraphPad Prism 5.
The target of experiment [3] is PI3K β (Homo sapiens (Human), UniProt P42338). The experiment can be described thus: PI3K β inhibition assay.
Sequence of PI3K β (P42338 whole entry): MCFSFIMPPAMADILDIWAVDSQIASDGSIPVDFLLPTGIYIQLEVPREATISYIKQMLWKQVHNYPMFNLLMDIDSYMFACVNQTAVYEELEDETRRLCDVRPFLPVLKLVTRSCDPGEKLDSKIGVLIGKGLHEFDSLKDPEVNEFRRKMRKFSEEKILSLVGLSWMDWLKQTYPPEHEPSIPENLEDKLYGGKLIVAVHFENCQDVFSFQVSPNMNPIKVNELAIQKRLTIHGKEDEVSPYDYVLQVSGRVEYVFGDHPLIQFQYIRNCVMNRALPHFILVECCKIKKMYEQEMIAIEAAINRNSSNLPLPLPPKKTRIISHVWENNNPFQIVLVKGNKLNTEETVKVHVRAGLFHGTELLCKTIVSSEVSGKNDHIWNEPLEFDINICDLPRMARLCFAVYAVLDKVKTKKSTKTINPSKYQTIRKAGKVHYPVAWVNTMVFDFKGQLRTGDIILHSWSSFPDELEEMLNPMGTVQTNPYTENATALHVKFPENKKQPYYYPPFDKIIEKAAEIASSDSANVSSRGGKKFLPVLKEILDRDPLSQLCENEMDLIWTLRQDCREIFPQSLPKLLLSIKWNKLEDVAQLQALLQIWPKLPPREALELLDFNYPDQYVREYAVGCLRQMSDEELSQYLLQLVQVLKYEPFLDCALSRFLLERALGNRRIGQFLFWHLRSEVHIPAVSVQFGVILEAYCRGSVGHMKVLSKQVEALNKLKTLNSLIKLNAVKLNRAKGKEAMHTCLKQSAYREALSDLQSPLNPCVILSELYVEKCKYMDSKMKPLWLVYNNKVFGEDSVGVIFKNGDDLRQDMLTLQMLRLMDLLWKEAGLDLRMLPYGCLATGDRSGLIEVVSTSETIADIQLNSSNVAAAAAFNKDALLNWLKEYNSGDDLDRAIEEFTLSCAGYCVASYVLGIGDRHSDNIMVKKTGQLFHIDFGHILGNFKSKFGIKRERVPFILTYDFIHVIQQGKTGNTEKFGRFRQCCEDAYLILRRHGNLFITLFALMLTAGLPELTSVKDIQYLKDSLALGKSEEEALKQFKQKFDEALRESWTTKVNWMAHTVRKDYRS
Sequence of PI3K β (P27986 whole entry partner): as the sequence (P27986 whole entry partner) above
Procedure: as §1, §2
Experiment [4] deals with PI3K γ (Homo sapiens (Human), UniProt P48736). The experiment in a line: PI3K γ inhibition assay. The following applies: Table 1; read-out: PI3K γ IC50.
Sequence of PI3K γ (P48736 whole entry): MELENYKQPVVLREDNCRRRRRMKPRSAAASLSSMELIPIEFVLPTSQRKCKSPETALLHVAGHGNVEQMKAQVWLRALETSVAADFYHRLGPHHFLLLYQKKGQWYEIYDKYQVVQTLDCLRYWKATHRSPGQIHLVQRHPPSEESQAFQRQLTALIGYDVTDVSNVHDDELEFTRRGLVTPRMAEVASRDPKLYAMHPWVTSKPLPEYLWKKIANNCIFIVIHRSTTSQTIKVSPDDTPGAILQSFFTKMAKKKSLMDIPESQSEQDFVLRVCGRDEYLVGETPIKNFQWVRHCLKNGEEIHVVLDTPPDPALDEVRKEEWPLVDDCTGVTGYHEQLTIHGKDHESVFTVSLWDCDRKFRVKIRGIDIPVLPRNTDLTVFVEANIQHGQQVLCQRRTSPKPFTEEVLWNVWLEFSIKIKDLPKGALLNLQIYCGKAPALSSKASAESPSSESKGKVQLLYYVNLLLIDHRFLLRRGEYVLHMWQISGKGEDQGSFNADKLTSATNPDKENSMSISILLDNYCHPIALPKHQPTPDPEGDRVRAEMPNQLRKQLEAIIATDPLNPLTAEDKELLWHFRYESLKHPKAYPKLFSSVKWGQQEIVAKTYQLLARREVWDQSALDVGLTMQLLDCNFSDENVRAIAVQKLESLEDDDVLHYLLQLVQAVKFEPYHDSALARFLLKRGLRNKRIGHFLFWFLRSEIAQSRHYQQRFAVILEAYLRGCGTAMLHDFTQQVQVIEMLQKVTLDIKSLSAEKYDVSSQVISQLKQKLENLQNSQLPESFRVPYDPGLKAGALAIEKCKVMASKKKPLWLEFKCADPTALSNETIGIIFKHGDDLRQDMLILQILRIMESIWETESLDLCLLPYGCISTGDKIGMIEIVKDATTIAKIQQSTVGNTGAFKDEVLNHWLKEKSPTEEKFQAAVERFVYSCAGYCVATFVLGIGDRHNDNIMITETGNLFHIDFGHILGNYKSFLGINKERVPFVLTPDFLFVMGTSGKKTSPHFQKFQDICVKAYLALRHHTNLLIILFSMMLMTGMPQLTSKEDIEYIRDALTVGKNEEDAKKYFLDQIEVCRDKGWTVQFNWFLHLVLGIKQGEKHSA
Procedure: as §1, §2
The target of experiment [5] is PI3K δ (Homo sapiens (Human), UniProt O00329). The experiment in a line: PI3K δ inhibition assay. The note with it: Table 1; read-out: PI3K δ IC50.
Sequence of PI3K δ (O00329 whole entry): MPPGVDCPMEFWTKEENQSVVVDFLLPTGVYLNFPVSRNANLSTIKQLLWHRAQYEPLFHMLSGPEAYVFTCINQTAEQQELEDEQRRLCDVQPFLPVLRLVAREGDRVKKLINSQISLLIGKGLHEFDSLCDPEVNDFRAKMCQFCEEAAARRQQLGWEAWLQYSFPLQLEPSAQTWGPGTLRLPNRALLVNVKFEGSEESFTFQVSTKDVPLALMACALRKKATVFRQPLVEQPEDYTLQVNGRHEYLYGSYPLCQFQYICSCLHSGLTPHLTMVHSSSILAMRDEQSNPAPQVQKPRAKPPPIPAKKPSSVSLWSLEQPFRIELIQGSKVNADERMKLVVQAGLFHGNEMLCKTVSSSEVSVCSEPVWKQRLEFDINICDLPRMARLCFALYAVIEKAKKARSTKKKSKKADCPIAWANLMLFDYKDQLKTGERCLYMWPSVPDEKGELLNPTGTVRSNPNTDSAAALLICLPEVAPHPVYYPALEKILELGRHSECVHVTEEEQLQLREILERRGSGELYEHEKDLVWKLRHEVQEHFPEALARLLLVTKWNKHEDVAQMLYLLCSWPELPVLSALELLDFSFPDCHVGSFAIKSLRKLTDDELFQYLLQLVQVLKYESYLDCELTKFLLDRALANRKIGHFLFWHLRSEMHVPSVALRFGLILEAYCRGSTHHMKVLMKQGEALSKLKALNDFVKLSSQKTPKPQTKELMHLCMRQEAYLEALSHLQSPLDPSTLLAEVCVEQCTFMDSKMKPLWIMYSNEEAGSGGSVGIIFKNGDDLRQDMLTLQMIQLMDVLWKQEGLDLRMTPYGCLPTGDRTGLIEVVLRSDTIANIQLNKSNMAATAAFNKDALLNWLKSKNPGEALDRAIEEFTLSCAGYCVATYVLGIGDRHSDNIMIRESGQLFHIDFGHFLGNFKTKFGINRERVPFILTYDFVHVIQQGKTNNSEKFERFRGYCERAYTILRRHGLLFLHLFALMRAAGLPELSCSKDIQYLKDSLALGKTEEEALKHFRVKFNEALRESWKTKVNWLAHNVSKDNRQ
Sequence of PI3K δ (P27986 whole entry partner): as the sequence (P27986 whole entry partner) above
Procedure: as §1, §2

In general, IC50 refers to the concentration at which inhibition is half-maximal. Take `Nc1ncnc2c1c(-c1cc3cccc(O)c3[nH]1)nn2C1CCN(C(=O)C2CC2)CC1` [Compound 41]: the IC50 is less than 10 nM in experiment [1]; more than 500 nM in experiment [2]; more than 500 nM in experiment [3] (Table 1, read-out: PI3K β IC50); less than 50 nM in experiment [4]; more than 500 nM in experiment [5].

Take `COCCn1nc(-c2cc3cc(O)ccc3[nH]2)c2c(N)ncnc21` [Compound 40]: the IC50 in experiment [1] was less than 100 nM; in experiment [2], more than 500 nM; in experiment [4], more than 500 nM; in experiment [5], more than 500 nM.

With `CC(=O)N1CCC(n2nc(-c3cc4ccc(O)cc4[nH]3)c3c(N)ncnc32)CC1` [Compound 65], the IC50 in experiment [1] was less than 10 nM; in experiment [2] it was less than 50 nM; in experiment [3] (Table 1, read-out: PI3K β IC50) it was more than 500 nM; in experiment [4], less than 25 nM; in experiment [5], less than 25 nM.

In turn, `CNC(=O)Nc1nc2ccc(-c3cn(C(C)C)c4ncnc(N)c34)cc2s1` [Compound 22] came in with an IC50 in experiment [3] not above 50 nM.

Turning to `CCOC(=O)Cn1nc(-c2cc3cc(O)ccc3[nH]2)c2c(N)ncnc21` [Compound 28], the IC50 is less than 500 nM in experiment [1]; more than 500 nM in experiment [2]; more than 500 nM in experiment [3] (Table 1, read-out: PI3K β IC50); more than 500 nM in experiment [5].

Regarding `CNC(=O)Cn1nc(-c2cc3cc(O)ccc3[nH]2)c2c(N)ncnc21` [Compound 35], the IC50 in experiment [1], in experiment [2], in experiment [4] and in experiment [5] was more than 500 nM each time.

`Nc1ncnc2c1c(-c1cc3cc(O)cc(Cl)c3[nH]1)nn2C1CCOCC1` [Compound 68]: the IC50 is less than 5 nM in experiment [1]; less than 500 nM in experiment [2]; more than 500 nM in experiment [3] (Table 1, read-out: PI3K β IC50); less than 50 nM in experiment [4]; less than 25 nM in experiment [5].

For `Nc1ncnc2c1c(-c1cc3cc(O)ccc3[nH]1)nn2C1CCN(C(=O)C2CC2)CC1` [Compound 31], the IC50 in experiment [1] was less than 25 nM; in experiment [2], more than 500 nM; in experiment [3] (Table 1, read-out: PI3K β IC50) it was more than 500 nM; in experiment [5], less than 500 nM.

As to `CC(C)n1nc(-c2cc3ccc(C#N)cc3[nH]2)c2c(N)ncnc21` [Compound 24], the IC50 in experiment [1] and in experiment [2] was more than 500 nM throughout.

As to `Nc1ncnc2c1c(-c1cc3cc(O)ccc3[nH]1)nn2C1CCCCC1` [Compound 26], the IC50 in experiment [1] is less than 10 nM; in experiment [2], more than 500 nM; in experiment [3] (Table 1, read-out: PI3K β IC50) it was more than 500 nM; in experiment [4], less than 500 nM; in experiment [5], less than 100 nM.

Take `Nc1ncnc2c1c(-c1cc3ccc(O)cc3[nH]1)nn2C1CCOCC1` [Compound 60]: the IC50 in experiment [1] is less than 100 nM; in experiment [2], more than 500 nM; in experiment [3] (Table 1, read-out: PI3K β IC50), more than 500 nM; in experiment [4], less than 100 nM.

With `Nc1ncnc2c1c(-c1cc3cccc(O)c3[nH]1)nn2C1CCCC1` [Compound 36], the IC50 in experiment [1] is less than 10 nM; in experiment [2], more than 500 nM; in experiment [4] it was less than 100 nM; in experiment [5], less than 500 nM.

For the compound `CC(=O)N1CCC(n2nc(-c3cc4cc(O)ccc4[nH]3)c3c(N)ncnc32)CC1` [Compound 30], the IC50 in experiment [1] was less than 25 nM; in experiment [2] it was more than 500 nM; in experiment [3] (Table 1, read-out: PI3K β IC50), more than 500 nM; in experiment [5], more than 500 nM.

Take `CC(C)n1nc(-c2cc3cccc(Cl)c3[nH]2)c2c(N)ncnc21` [Compound 50]: the IC50 in experiment [1] was less than 50 nM; in experiment [2], more than 500 nM; in experiment [3] (Table 1, read-out: PI3K β IC50) it was more than 500 nM; in experiment [4], less than 500 nM; in experiment [5] it was less than 500 nM.

With `COc1ccc(Cl)c2cc(-c3nn(C4CCOCC4)c4ncnc(N)c34)[nH]c12` [Compound 61], the half-inhibitory concentration (IC50) was less than 25 nM in experiment [1]; more than 500 nM in experiment [2]; more than 500 nM in experiment [3] (Table 1, read-out: PI3K β IC50); more than 500 nM in experiment [4]; more than 500 nM in experiment [5].

For `CC(C)N1CCC(n2nc(-c3cc4cc(O)ccc4[nH]3)c3c(N)ncnc32)CC1` [Compound 55], the IC50 in experiment [1] was less than 500 nM; in experiment [2], more than 500 nM; in experiment [3] (Table 1, read-out: PI3K β IC50), more than 500 nM; in experiment [4], more than 500 nM.

For `Nc1ncnc2c1c(-c1cc3cc(O)ccc3[nH]1)nn2C1CC(=O)C1` [Compound 53], the half-maximal inhibitory concentration (IC50) in experiment [1] was less than 100 nM; in experiment [2], more than 500 nM; in experiment [3] (Table 1, read-out: PI3K β IC50), more than 500 nM; in experiment [4] it was more than 500 nM.

`Nc1ncnc2c1c(-c1cc3cc(O)ccc3[nH]1)nn2Cc1cccnc1` [Compound 38]: the IC50 in experiment [1] was less than 500 nM; in experiment [2], more than 500 nM; in experiment [4] it was more than 500 nM; in experiment [5], more than 500 nM.

For the compound `Nc1ncnc2c1c(-c1cc3cc(O)ccc3[nH]1)nn2CCN1CCOCC1` [Compound 33], the IC50 in experiment [1] was less than 500 nM; in experiment [2], more than 500 nM; in experiment [4], more than 500 nM; in experiment [5], more than 500 nM.

As for `CC(C)N1CCC(n2nc(-c3cc4cccc(O)c4[nH]3)c3c(N)ncnc32)CC1` [Compound 64], the IC50 in experiment [1] is less than 25 nM; in experiment [2], more than 500 nM; in experiment [3] (Table 1, read-out: PI3K β IC50), more than 500 nM; in experiment [4], less than 500 nM; in experiment [5] it was less than 500 nM.

As for `CN1CCN(C2CCC(n3nc(-c4cc5cc(O)ccc5[nH]4)c4c(N)ncnc43)CC2)CC1` (centres unmarked) [Compound 58], the IC50 in experiment [1] is more than 500 nM; in experiment [2] it was more than 500 nM; in experiment [3] (Table 1, read-out: PI3K β IC50) it was more than 500 nM; in experiment [4], more than 500 nM.

For `CC(C)n1nc(-c2cc3cc(O)ccc3[nH]2)c2c(N)nccc21` [Compound 45], in experiment [1], the IC50 was more than 500 nM.

For `CC(C)n1nc(-c2cc3c(O)cccc3[nH]2)c2c(N)ncnc21` [Compound 37], the IC50 in experiment [1] is more than 500 nM; in experiment [2] it was less than 500 nM; in experiment [4] it was less than 500 nM; in experiment [5], less than 500 nM.

As to `CC(=O)N1CCC(n2nc(-c3cc4c(Cl)ccc(O)c4[nH]3)c3c(N)ncnc32)CC1` [Compound 69], the IC50 in experiment [1] was less than 5 nM; in experiment [2], more than 500 nM; in experiment [3] (Table 1, read-out: PI3K β IC50), more than 500 nM; in experiment [4], more than 500 nM; in experiment [5], less than 500 nM.

For `CC(C)n1nc(-c2cc3cc(O)c(Cl)cc3[nH]2)c2c(N)ncnc21` [Compound 32], the IC50 was less than 500 nM in experiment [1], more than 500 nM in experiment [2], more than 500 nM in experiment [4] and more than 500 nM in experiment [5].

As for `Nc1ncnc2c1c(-c1cc3cccc(Cl)c3[nH]1)nn2C1CCOCC1` [Compound 51], the IC50 in experiment [1] was less than 50 nM; in experiment [2], more than 500 nM; in experiment [3] (Table 1, read-out: PI3K β IC50), more than 500 nM; in experiment [4], less than 500 nM; in experiment [5] it was less than 500 nM.

`COc1ccc2cc(-c3nn(C4CCOCC4)c4ncnc(N)c34)[nH]c2c1` [Compound 59]: the IC50 was more than 500 nM in experiment [1]; more than 500 nM in experiment [2]; more than 500 nM in experiment [3] (Table 1, read-out: PI3K β IC50); more than 500 nM in experiment [4].

Regarding `COc1cccc2cc(-c3nn(C4CCN(C(=O)C5CC5)CC4)c4ncnc(N)c34)[nH]c12` [Compound 66], the half-inhibitory concentration (IC50) in experiment [1] was more than 500 nM; in experiment [2], more than 500 nM; in experiment [3] (Table 1, read-out: PI3K β IC50) it was more than 500 nM; in experiment [4], more than 500 nM; in experiment [5], more than 500 nM.

On to `CC(C)n1nc(-c2cc3c(Cl)ccc(O)c3[nH]2)c2c(N)ncnc21` [Compound 39], for which the IC50 in experiment [1] is less than 10 nM; in experiment [2], more than 500 nM; in experiment [4], more than 500 nM; in experiment [5] it was more than 500 nM.

Regarding `Nc1ncnc2c1c(-c1cc3c(Cl)cccc3[nH]1)nn2C1CCOCC1` [Compound 48], the IC50 in experiment [1] is less than 50 nM; in experiment [2], more than 500 nM; in experiment [3] (Table 1, read-out: PI3K β IC50), more than 500 nM; in experiment [4] it was more than 500 nM; in experiment [5], more than 500 nM.

In the case of `CC(C)n1nc(-c2cc3ccc(C(N)=O)cc3[nH]2)c2c(N)ncnc21` [Compound 25], the IC50 is less than 500 nM in experiment [1] and more than 500 nM in experiment [2].

Take `CC(C)N1CCC(n2nc(-c3cc4cc(O)cc(Cl)c4[nH]3)c3c(N)ncnc32)CC1` [Compound 56]: the IC50 is more than 500 nM in experiment [1]; more than 500 nM in experiment [2]; more than 500 nM in experiment [3] (Table 1, read-out: PI3K β IC50); more than 500 nM in experiment [4].

As for `Nc1ncnc2c1c(-c1cc3cc(O)ccc3[nH]1)nn2C1CCC(N2CCOCC2)CC1` (centres unmarked) [Compound 57], the IC50 was less than 25 nM in experiment [1]; more than 500 nM in experiment [2]; more than 500 nM in experiment [3] (Table 1, read-out: PI3K β IC50); more than 500 nM in experiment [4].

Take `Nc1ncnc2c1c(-c1cc3cc(O)ccc3[nH]1)nn2C1CCC1` [Compound 27]: the half-maximal inhibitory concentration (IC50) in experiment [1] is less than 25 nM.

Consider `Nc1ncnc2c1c(-c1cc3cc(O)ccc3[nH]1)nn2C1CCOCC1` [Compound 42], for which the IC50 was less than 5 nM in experiment [1]; more than 500 nM in experiment [2]; more than 500 nM in experiment [3] (Table 1, read-out: PI3K β IC50); less than 100 nM in experiment [5].

As for `COc1cc2cc(-c3nn(C(C)C)c4ncnc(N)c34)[nH]c2cc1Cl` [Compound 29], in experiment [1], the IC50 was more than 500 nM.

With `Cc1nccn1CCn1nc(-c2cc3cc(O)ccc3[nH]2)c2c(N)ncnc21` [Compound 44], the IC50 is less than 100 nM in experiment [1]; more than 500 nM in experiment [2]; more than 500 nM in experiment [3] (Table 1, read-out: PI3K β IC50); more than 500 nM in experiment [5].

Regarding `CNC(=O)CCn1nc(-c2cc3cc(O)ccc3[nH]2)c2c(N)ncnc21` [Compound 43], the IC50 in experiment [1] was more than 500 nM; in experiment [2], more than 500 nM; in experiment [3] (Table 1, read-out: PI3K β IC50) it was more than 500 nM; in experiment [5], more than 500 nM.

Turning to `Nc1ncnc2c1c(-c1cc3cc(O)ccc3[nH]1)nn2C1CC(O)C1` (centres unmarked) [Compound 54], the IC50 in experiment [1] is less than 25 nM; in experiment [2], more than 500 nM; in experiment [3] (Table 1, read-out: PI3K β IC50), more than 500 nM; in experiment [4], more than 500 nM.

Turning to `Nc1ncnc2c1c(-c1cc3cc(O)ccc3[nH]1)nn2CC(=O)N1CCOCC1` [Compound 34], the IC50 in experiment [1], in experiment [2], in experiment [4] and in experiment [5] was more than 500 nM each time.
